Measured values: US20230122991A1, “GROWTH FACTOR FORMULATION FOR CONDITION ASSOCIATED WITH OTIC EVENT” (OTONOMY, INC., priority 2020, published 2023)

Legend:
[1] = tested on: Spiral ganglion neurons (SGNs); test: Survival of spiral ganglion neurons (Example C); assay type: cell-based, rat; details: 1 μM; compared to a vehicle-only control, 0.01% DMSO; FIG. 6C
Procedure: Spiral ganglion neurons (SGNs) were harvested from P1-P3 rates, dissociated, and cultured in 96-well plates. The SGNs were treated with neurotrophins and/or antibodies at various concentrations. After about 24 hours, media was exchanged to serum-free media and the neurotrophins and/or antibodies were replenished. Cells were cultured for an additional 48-72 hours before being fixed using 4% paraformaldehyde (PFA) and stained using 4′,6-diamidino-2-phenylindole (DAPI). […] Surviving neurons were identified as cells with intact soma and at least one neurite.

SGNs = test: SGN complexity, dissociated SGNs (Example D); assay type: cell-based, rat; details: differences upon treatment, FIG. 7D
Source text: SGNs were immunostained, imaged, and batch analyzed with PerkinElmer Harmony 4.6 software. Changes in the complexities of SGNs upon treatment with various agents were examined. […] All of the images in a single well were stitched together and analyzed. SGN somas are shown in the upper right panel and SGN neurites are shown in the lower left panel. As shown in the lower right panel, each neurite tree is assigned to a single cell for analysis. Depending on the stitching, occasionally neurites will not meet the criteria due to gaps that exceed a user-defined threshold.

Molecule	Survival of SGNs [1]	total neurite length, total number of extremities, segments, and nodes per cell (SGNs)
OCCN(CCO)c1ccc(C(c2ccc(Cl)cc2)c2ccc(N(CCO)CCO)cc2)cc1 [LM22b10]	not improved	
neurotrophin-3 (protein, UniProt P20783 139-257, looked up, Neurotrophin-3) Neurotrophin-3: YAEHKSHRGEYSVCDSESLWVTDKSSAIDIRGHQVTVLGEIKTGNSPVKQYFYETRCKEARPVKNGCRGIDDKHWNSQCKTSQTYVRALTSENNKLVGWRWIRIDTSCVCALSRKIGRT		not statistically significant
